Reference: ChEMBL document CHEMBL4130359, “Indazole-based ligands for estrogen-related receptor α as potential anti-diabetic agents” (Eur J Med Chem, 2017)

Tests used:
[1] = tested on: Rattus norvegicus; assay: Effect on HSD17B4 gene expression in epididymal white adipose tissue of Zucker rat sub-chronic fa/fa prediabetic model at 10 mg/kg, po qd for 15 days by microarray analysis relative to control; assay type: functional
[2] = tested on: Rattus norvegicus; assay: Effect on PRKCD gene expression in epididymal white adipose tissue of Zucker rat sub-chronic fa/fa prediabetic model at 10 mg/kg, po qd for 15 days by microarray analysis relative to control; assay type: functional
[3] = Half life in CD-1 mouse at 5 mg/kg, iv by LC-MS analysis; assay type: ADME, organism-based; settings: in vivo
[4] = tested on: Rattus norvegicus; assay: Effect on PRDX3 gene expression in epididymal white adipose tissue of Zucker rat sub-chronic fa/fa prediabetic model at 10 mg/kg, po qd for 15 days by microarray analysis relative to control; assay type: functional
[5] = tested on: Rattus norvegicus; assay: Toxicity in […] chronic ob/ob model assessed as body weight at 50 mg/kg, po qd for 28 days measured on day 28 post last dose (reference value: 47.3 +/- 1.06 g); assay type: organism-based; settings: in vivo, 672 h
[6] = tested on: Rattus norvegicus; assay: Antidiabetic activity in Zucker rat sub-chronic fa/fa prediabetic model assessed as increase in serum adiponectin level administered orally once daily for 4 days by ELISA; assay type: functional, organism-based
[7] = tested on: Rattus norvegicus; assay: Effect on ATP5F1 gene expression in epididymal white adipose tissue of Zucker rat sub-chronic fa/fa prediabetic model at 10 mg/kg, po qd for 15 days by microarray analysis relative to control; assay type: functional
[8] = tested on: Rattus norvegicus; assay: Toxicity in Zucker rat sub-chronic fa/fa prediabetic model assessed as insulin level per gram pancreas at 10 mg/kg, po qd for 31 days measured on day 32 (reference value: 55.2 +/- 5.5 ug); assay type: organism-based; settings: in vivo, 744 h
[9] = tested on: Rattus norvegicus; assay: Antidiabetic activity in Zucker rat sub-chronic fa/fa prediabetic model assessed as blood insulin AUC (0 to 120 min) at 1 mg/kg, po qd for 31 days measured on day 29 post dose (reference value: 1503 +/- 160 ug.min/L); assay type: functional, organism-based; set-up: time < 2 hr, dose 1 mg/kg
[10] = tested on: Rattus norvegicus; assay: Toxicity in […] model assessed as liver weight at 3 mg/kg, po qd for 31 days measured on day 32 (reference value: 2.77 +/- 0.16 g); assay type: organism-based; settings: in vivo, 744 h
[11] = tested on: Rattus norvegicus; assay: Toxicity in Zucker rat sub-chronic fa/fa prediabetic model assessed as serum ALT level at 3 mg/kg, po qd for 31 days measured on day 32 (reference value: 151 +/- 23 U/L); assay type: organism-based; settings: in vivo, 744 h
[12] = molecular target: Retinoic acid receptor RXR-beta (Homo sapiens, UniProt P28702); assay: Antagonist activity at recombinant GST-tagged human RXRbeta LBD assessed as inhibition of all-trans-retinoic acid-induced fluorescein-labeled coactivator peptide recruitment preincubated with enzyme followed by coactivator addition by LanthaScreen TR-FRET assay
[13] = tested on: Rattus norvegicus; assay: Effect on COX4I1 gene expression in epididymal white adipose tissue of Zucker rat sub-chronic fa/fa prediabetic model at 10 mg/kg, po qd for 15 days by microarray analysis relative to control; assay type: functional
[14] = tested on: Rattus norvegicus; assay: Toxicity in […] chronic ob/ob model assessed as brown adipose tissue weight at 10 mg/kg, po qd for 31 days measured on day 32 (reference value: 0.59 +/- 0.05 g); assay type: organism-based; settings: in vivo, 744 h
[15] = Cmax in ob/ob mouse at 18 mg/kg administered via oral gavage by LC-MS analysis; assay type: ADME, organism-based; set-up: dose 18 mg/kg, route oral; settings: in vivo
[16] = AUC (0 to 24 hrs) in Zucker rat sub-chronic fa/fa prediabetic model at 1 mg/kg, po qd measured on day 1 post dose; assay type: ADME, organism-based; set-up: time < 24 hr, dose 1 mg/kg, route oral; settings: in vivo
[17] = tested on: Rattus norvegicus; assay: Toxicity in […] chronic ob/ob model assessed as food intake at 50 mg/kg, po qd for 28 days measured on day 1 to 28 during compound dosing (reference value: 170.6 +/- 3 g); assay type: organism-based; settings: in vivo, 672 h
[18] = tested on: Rattus norvegicus; assay: Effect on GNPAT gene expression in epididymal white adipose tissue of Zucker rat sub-chronic fa/fa prediabetic model at 10 mg/kg, po qd for 15 days by microarray analysis relative to control; assay type: functional
[19] = tested on: Rattus norvegicus; assay: Toxicity in […] model assessed as serum AST level at 10 mg/kg, po qd for 31 days measured on day 32 (reference value: 180 +/- 26 U/L); assay type: organism-based; settings: in vivo, 744 h
[20] = tested on: Rattus norvegicus; assay: Toxicity in Zucker rat sub-chronic fa/fa prediabetic model assessed as food intake at 3 mg/kg, po qd for 29 days measured on day 1 to 29 during compound dosing (reference value: 969 +/- 18 g); assay type: organism-based; settings: in vivo, 696 h
[21] = tested on: Rattus norvegicus; assay: Effect on HLA-DRB1 gene expression in epididymal white adipose tissue of Zucker rat sub-chronic fa/fa prediabetic model at 10 mg/kg, po qd for 15 days by microarray analysis relative to control; assay type: functional
[22] = tested on: Rattus norvegicus; assay: Antidiabetic activity in […] model assessed as HbA1C level at 50 mg/kg, po qd for 31 days measured on day 32 post dose (reference value: 5.9 +/- 0.18%); assay type: functional
[23] = Oral bioavailability in Sprague-Dawley rat at 10 mg/kg administered via gavage by LC-MS analysis; assay type: ADME, organism-based; settings: in vivo
[24] = tested on: Rattus norvegicus; assay: Effect on HSP90B1 gene expression in epididymal white adipose tissue of Zucker rat sub-chronic fa/fa prediabetic model at 10 mg/kg, po qd for 15 days by microarray analysis relative to control; assay type: functional
[25] = tested on: Rattus norvegicus; assay: Toxicity in […] chronic ob/ob model assessed as body weight at 10 mg/kg, po qd for 28 days measured on day 28 post last dose (reference value: 47.3 +/- 1.06 g); assay type: organism-based; settings: in vivo, 672 h
[26] = tested on: Rattus norvegicus; assay: Toxicity in Zucker rat sub-chronic fa/fa prediabetic model assessed as serum AST level at 1 mg/kg, po qd for 31 days measured on day 32 (reference value: 187 +/- 37 U/L); assay type: organism-based; settings: in vivo, 744 h
[27] = Drug uptake in fat tissue of Zucker rat sub-chronic fa/fa prediabetic model at 12.5 mg/kg, po qd for 11 days; assay type: ADME, organism-based, Adipose tissue; settings: read-out: Drug uptake
[28] = tested on: Rattus norvegicus; assay: Toxicity in […] model assessed as serum cholesterol level at 50 mg/kg, po qd for 31 days measured on day 32 (reference value: 195 +/- 5.5 mg/dl); assay type: organism-based; settings: in vivo, 744 h
[29] = tested on: Rattus norvegicus; assay: Antidiabetic activity in Zucker rat sub-chronic fa/fa prediabetic model assessed as fasting blood insulin level at 1 mg/kg, po qd for 31 days measured on day 29 post dose (reference value: 8.5 +/- 1.4 ug/L); assay type: functional
[30] = Terminal half life in […] at 15 mg/kg administered via oral gavage by LC-MS analysis; assay type: ADME, organism-based; settings: in vivo, read-out: beta t1/2 (converted)
[31] = tested on: Rattus norvegicus; assay: Effect on NFATC4 gene expression in epididymal white adipose tissue of Zucker rat sub-chronic fa/fa prediabetic model at 10 mg/kg, po qd for 15 days by microarray analysis relative to control; assay type: functional
[32] = AUC (0 to 24 hrs) in […] model at 50 mg/kg, po qd measured on day 1 post dose; assay type: ADME, organism-based; set-up: dose 50 mg/kg, time < 24 hr, route oral; settings: in vivo
[33] = tested on: Rattus norvegicus; assay: Effect on ALDH3B1 gene expression in epididymal white adipose tissue of Zucker rat sub-chronic fa/fa prediabetic model at 10 mg/kg, po qd for 15 days by microarray analysis relative to control; assay type: functional

Chain of Retinoic acid receptor RXR-beta (P28702 whole entry, the tested form may be a part): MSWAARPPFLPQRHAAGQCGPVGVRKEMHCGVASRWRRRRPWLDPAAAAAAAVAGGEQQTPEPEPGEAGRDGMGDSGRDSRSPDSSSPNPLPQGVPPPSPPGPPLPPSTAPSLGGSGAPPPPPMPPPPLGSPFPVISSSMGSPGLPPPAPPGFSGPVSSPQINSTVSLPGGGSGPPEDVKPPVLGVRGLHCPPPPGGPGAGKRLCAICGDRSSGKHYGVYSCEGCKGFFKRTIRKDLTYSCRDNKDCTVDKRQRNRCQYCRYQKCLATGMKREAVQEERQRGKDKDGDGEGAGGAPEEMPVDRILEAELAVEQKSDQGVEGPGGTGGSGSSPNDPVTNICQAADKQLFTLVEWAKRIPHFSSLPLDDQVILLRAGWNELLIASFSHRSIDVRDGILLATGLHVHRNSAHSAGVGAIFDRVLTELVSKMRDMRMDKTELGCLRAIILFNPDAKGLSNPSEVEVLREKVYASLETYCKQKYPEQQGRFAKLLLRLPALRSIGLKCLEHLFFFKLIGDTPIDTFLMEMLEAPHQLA

## CN1CC[C@@H](N2C(=O)S/C(=C\c3ccc4c(cnn4Cc4ccc(Cl)cc4C(F)(F)F)c3)C2=O)[C@H](F)C1
[1]
  fold change (FC): 1.226
[2]
  fold change (FC): -1.615
[3]
  half-life: 11.8 h
[4]
  fold change (FC): 1.559
[5]
  Activity: 46.8 g
[6]
  Activity: Dose-dependent effect
[7]
  fold change (FC): 1.257
[8]
  Activity: 80.1 µg
[9]
  AUC: 16.6 ng·h/mL
[10]
  Activity: 2.65 g
[11]
  Activity: 117 U/L
[12]
  IC50: > 10 µM
[13]
  fold change (FC): 1.323
[14]
  Activity: 0.99 g
[15]
  Cmax: 829 ng/mL
[16]
  AUC(0-t) at 24 h: 1760 ng·h/mL
[17]
  Activity: 152.4 g
[18]
  fold change (FC): 1.212
[19]
  Activity: 171 U/L
[20]
  Activity: 1067 g
[21]
  fold change (FC): -1.334
[22]
  Activity: 5%
[23]
  bioavailability: 84%
[24]
  fold change (FC): -1.258
[25]
  Activity: 46.2 g
[26]
  Activity: 158 U/L
[27]
  concentration at 264 h: 58100 ng/g
[28]
  Activity: 145 mg/dL
[29]
  Activity: 5 µg/L
[30]
  half-life: 6.7 h
[31]
  fold change (FC): 1.383
[32]
  AUC(0-t) at 24 h: 16900 ng·h/mL
[33]
  fold change (FC): -1.554
